Values joined by “and” are separate entries in the source; they are usually repeats but may differ in a detail not shown here. Identical values can stand only once.
System: patients with MUM
Assay: Adverse events suspected to be study drug related (NCI-CTCAE v4.03)
Format: in vivo, human
Conditions: for Alanine aminotransferase increased / Aspartate aminotransferase increased / Asthenia / Blood creatinine increased / Constipation / Diarrhoea / Dry skin / Fatigue / Hypotension / Nausea / Number of patients with ≥1 adverse event / Rash / Vomiting: suspected drug related
Protocol: Routine safety assessments, including laboratory assessments, physical examinations, vital signs and electrocardiograms (ECGs), were conducted at regular intervals throughout the study and more frequently as needed following patient assessment by the treating physician. Adverse events (AEs) were assessed continuously according to the National Cancer Institute Common Terminology Criteria for Adverse Events (NCI-CTCAE) v4.03.

[1] = 300 mg BID (RDE), n=18, All grades
[2] = 300 mg BID (RDE), n=18, Grade ≥3
[3] = All LXS196 BID patients, n=30, All grades
[4] = All LXS196 BID patients, n=30, Grade ≥3
[5] = All LXS196 patients, N=68, All grades
[6] = All LXS196 patients, N=68, Grade ≥3

CC1(N)CCN(c2cccnc2NC(=O)c2nc(-c3ncccc3C(F)(F)F)cnc2N)CC1 [LXS196]
Dry skin, all grades (All BID): 6 (20.0) n (%)
Dry skin, grade ≥3 (All BID): 0 n (%)
Fatigue, all grades (All BID): 4 (13.3) n (%)
Fatigue, grade ≥3 (All BID): 0 n (%)
Hypotension, all grades (All BID): 7 (23.3) n (%)
Nausea, all grades (All BID): 19 (63.3) n (%)
Nausea, grade ≥3 (All BID): 0 n (%)
Patients with ≥1 AE, all grades (All BID): 28 (93.3) n (%)
Patients with ≥1 AE, grade ≥3 (All BID): 6 (20.0) n (%)
Rash, all grades (All BID): 5 (16.7) n (%)
Rash, grade ≥3 (All BID): 0 n (%)
Vomiting, all grades (All BID): 9 (30.0) n (%)
Vomiting, grade ≥3 (All BID): 0 n (%)
ALT increased, all grades (All QD): 7 (18.4) n (%)
ALT increased, grade ≥3 (All QD): 2 (5.3) n (%)
AST increased, all grades (All QD): 5 (13.2) n (%)
AST increased, grade ≥3 (All QD): 2 (5.3) n (%)
Asthenia, all grades (All QD): 6 (15.8) n (%)
Asthenia, grade ≥3 (All QD): 0 n (%)
Blood creatinine increased, all grades (All QD): 2 (5.3) n (%)
Blood creatinine increased, grade ≥3 (All QD): 0 n (%)
Constipation, all grades (All QD): 4 (10.5) n (%)
Constipation, grade ≥3 (All QD): 0 n (%)
Diarrhoea, all grades (All QD): 15 (39.5) n (%)
Diarrhoea, grade ≥3 (All QD): 0 n (%)
Dry skin, all grades (All QD): 2 (5.3) n (%)
Dry skin, grade ≥3 (All QD): 0 n (%)
Fatigue, all grades (All QD): 10 (26.3) n (%)
Fatigue, grade ≥3 (All QD): 0 n (%)
Hypotension, all grades (All QD): 8 (21.1) n (%)
Nausea, all grades (All QD): 26 (68.4) n (%)
Nausea, grade ≥3 (All QD): 1 (2.6) n (%)
Patients with ≥1 AE, all grades (All QD): 35 (92.1) n (%)
Patients with ≥1 AE, grade ≥3 (All QD): 11 (28.9) n (%)
Rash, all grades (All QD): 3 (7.9) n (%)
Rash, grade ≥3 (All QD): 0 n (%)
Vomiting, all grades (All QD): 12 (31.6) n (%)
Vomiting, grade ≥3 (All QD): 1 (2.6) n (%)
ALT increased, all grades (All patients): 15 (22.1) n (%)
ALT increased, grade ≥3 (All patients): 4 (5.9) n (%)
AST increased, all grades (All patients): 11 (16.2) n (%)
AST increased, grade ≥3 (All patients): 4 (5.9) n (%)
Asthenia, all grades (All patients): 13 (19.1) n (%)
Asthenia, grade ≥3 (All patients): 0 n (%)
Blood creatinine increased, all grades (All patients): 7 (10.3) n (%)
Blood creatinine increased, grade ≥3 (All patients): 0 n (%)
Constipation, all grades (All patients): 7 (10.3) n (%)
Constipation, grade ≥3 (All patients): 0 n (%)
Diarrhoea, all grades (All patients): 31 (45.6) n (%)
Diarrhoea, grade ≥3 (All patients): 1 (1.5) n (%)
Dry skin, all grades (All patients): 8 (11.8) n (%)
Dry skin, grade ≥3 (All patients): 0 n (%)
Fatigue, all grades (All patients): 14 (20.6) n (%)
Fatigue, grade ≥3 (All patients): 0 n (%)
Hypotension, all grades (All patients): 15 (22.1) n (%)
Hypotension, grade ≥3 (All patients): 6 (8.8) n (%)
Nausea, all grades (All patients): 45 (66.2) n (%)
Nausea, grade ≥3 (All patients): 1 (1.5) n (%)
Patients with ≥1 AE, all grades (All patients): 63 (92.6%) n (%) and 63 (92.6) n (%)
Patients with ≥1 AE, grade ≥3 (All patients): 17 (25.0%) n (%) and 17 (25.0) n (%)
Rash, all grades (All patients): 8 (11.8) n (%)
Rash, grade ≥3 (All patients): 0 n (%)
Vomiting, all grades (All patients): 21 (30.9) n (%)
Vomiting, grade ≥3 (All patients): 1 (1.5) n (%)
Alanine aminotransferase increased (200 mg BID, n=6, All grades): 0 n (%)
Aspartate aminotransferase increased (200 mg BID, n=6, All grades): 0 n (%)
Asthenia (200 mg BID, n=6, All grades): 1 (16.7) n (%)
Blood creatinine increased (200 mg BID, n=6, All grades): 3 (50.0) n (%)
Constipation (200 mg BID, n=6, All grades): 0 n (%)
Diarrhoea (200 mg BID, n=6, All grades): 2 (33.3) n (%)
Dry skin (200 mg BID, n=6, All grades): 1 (16.7) n (%)
Fatigue (200 mg BID, n=6, All grades): 0 n (%)
Hypotension (200 mg BID, n=6, All grades): 0 n (%)
Nausea (200 mg BID, n=6, All grades): 2 (33.3) n (%)
Number of patients with ≥1 adverse event (200 mg BID, n=6, All grades): 5 (83.3) n (%)
Rash (200 mg BID, n=6, All grades): 0 n (%)
Vomiting (200 mg BID, n=6, All grades): 0 n (%)
Alanine aminotransferase increased (200 mg BID, n=6, Grade ≥3): 0 n (%)
Aspartate aminotransferase increased (200 mg BID, n=6, Grade ≥3): 0 n (%)
Asthenia (200 mg BID, n=6, Grade ≥3): 0 n (%)
Blood creatinine increased (200 mg BID, n=6, Grade ≥3): 0 n (%)
Constipation (200 mg BID, n=6, Grade ≥3): 0 n (%)
Diarrhoea (200 mg BID, n=6, Grade ≥3): 0 n (%)
Dry skin (200 mg BID, n=6, Grade ≥3): 0 n (%)
Fatigue (200 mg BID, n=6, Grade ≥3): 0 n (%)
Hypotension (200 mg BID, n=6, Grade ≥3): 0 n (%)
Nausea (200 mg BID, n=6, Grade ≥3): 0 n (%)
Number of patients with ≥1 adverse event (200 mg BID, n=6, Grade ≥3): 0 n (%)
Rash (200 mg BID, n=6, Grade ≥3): 0 n (%)
Vomiting (200 mg BID, n=6, Grade ≥3): 0 n (%)
Alanine aminotransferase increased [1]: 5 (27.8) n (%)
Aspartate aminotransferase increased [1]: 3 (16.7) n (%)
Asthenia [1]: 4 (22.2) n (%)
Blood creatinine increased [1]: 2 (11.1) n (%)
Constipation [1]: 1 (5.6) n (%)
Diarrhoea [1]: 11 (61.1) n (%)
Dry skin [1]: 4 (22.2) n (%)
Fatigue [1]: 3 (16.7) n (%)
Hypotension [1]: 3 (16.7) n (%)
Nausea [1]: 14 (77.8) n (%)
Number of patients with ≥1 adverse event [1]: 17 (94.4) n (%)
Rash [1]: 4 (22.2) n (%)
Vomiting [1]: 7 (38.9) n (%)
Alanine aminotransferase increased [2]: 1 (5.6) n (%)
Aspartate aminotransferase increased [2]: 1 (5.6) n (%)
Asthenia [2]: 0 n (%)
Blood creatinine increased [2]: 0 n (%)
Constipation [2]: 0 n (%)
Diarrhoea [2]: 1 (5.6) n (%)
Dry skin [2]: 0 n (%)
Fatigue [2]: 0 n (%)
Hypotension [2]: 0 n (%)
Nausea [2]: 0 n (%)
Number of patients with ≥1 adverse event [2]: 2 (11.1) n (%)
Rash [2]: 0 n (%)
Vomiting [2]: 0 n (%)
Alanine aminotransferase increased (400 mg BID, n=6, All grades): 3 (50.0) n (%)
Aspartate aminotransferase increased (400 mg BID, n=6, All grades): 3 (50.0) n (%)
Asthenia (400 mg BID, n=6, All grades): 2 (33.3) n (%)
Blood creatinine increased (400 mg BID, n=6, All grades): 0 n (%)
Constipation (400 mg BID, n=6, All grades): 2 (33.3) n (%)
Diarrhoea (400 mg BID, n=6, All grades): 3 (50.0) n (%)
Dry skin (400 mg BID, n=6, All grades): 1 (16.7) n (%)
Fatigue (400 mg BID, n=6, All grades): 1 (16.7) n (%)
Hypotension (400 mg BID, n=6, All grades): 4 (66.7) n (%)
Nausea (400 mg BID, n=6, All grades): 3 (50.0) n (%)
Number of patients with ≥1 adverse event (400 mg BID, n=6, All grades): 6 (100) n (%)
Rash (400 mg BID, n=6, All grades): 1 (16.7) n (%)
Vomiting (400 mg BID, n=6, All grades): 2 (33.3) n (%)
Alanine aminotransferase increased (400 mg BID, n=6, Grade ≥3): 1 (16.7) n (%)
Aspartate aminotransferase increased (400 mg BID, n=6, Grade ≥3): 1 (16.7) n (%)
Asthenia (400 mg BID, n=6, Grade ≥3): 0 n (%)
Blood creatinine increased (400 mg BID, n=6, Grade ≥3): 0 n (%)
Constipation (400 mg BID, n=6, Grade ≥3): 0 n (%)
Diarrhoea (400 mg BID, n=6, Grade ≥3): 0 n (%)
Dry skin (400 mg BID, n=6, Grade ≥3): 0 n (%)
Fatigue (400 mg BID, n=6, Grade ≥3): 0 n (%)
Hypotension (400 mg BID, n=6, Grade ≥3): 1 (16.7) n (%)
Nausea (400 mg BID, n=6, Grade ≥3): 0 n (%)
Number of patients with ≥1 adverse event (400 mg BID, n=6, Grade ≥3): 4 (66.7) n (%)
Rash (400 mg BID, n=6, Grade ≥3): 0 n (%)
Vomiting (400 mg BID, n=6, Grade ≥3): 0 n (%)
Alanine aminotransferase increased [3]: 8 (26.7) n (%)
Aspartate aminotransferase increased [3]: 6 (20.0) n (%)
Asthenia [3]: 7 (23.3) n (%)
Blood creatinine increased [3]: 5 (16.7) n (%)
Constipation [3]: 3 (10.0) n (%)
Diarrhoea [3]: 16 (53.3) n (%)
Dry skin [3]: 6 (20.0) n (%)
Fatigue [3]: 4 (13.3) n (%)
Hypotension [3]: 7 (23.3) n (%)
Nausea [3]: 19 (63.3) n (%)
Number of patients with ≥1 adverse event [3]: 28 (93.3) n (%)
Rash [3]: 5 (16.7) n (%)
Vomiting [3]: 9 (30.0) n (%)
Alanine aminotransferase increased [4]: 2 (6.7) n (%)
Aspartate aminotransferase increased [4]: 2 (6.7) n (%)
Asthenia [4]: 0 n (%)
Blood creatinine increased [4]: 0 n (%)
Constipation [4]: 0 n (%)
Diarrhoea [4]: 1 (3.3) n (%)
Dry skin [4]: 0 n (%)
Fatigue [4]: 0 n (%)
Hypotension [4]: 1 (3.3) n (%)
Nausea [4]: 0 n (%)
Number of patients with ≥1 adverse event [4]: 6 (20.0) n (%)
Rash [4]: 0 n (%)
Vomiting [4]: 0 n (%)
Alanine aminotransferase increased [5]: 15 (22.1) n (%)
Aspartate aminotransferase increased [5]: 11 (16.2) n (%)
Asthenia [5]: 13 (19.1) n (%)
Blood creatinine increased [5]: 7 (10.3) n (%)
Constipation [5]: 7 (10.3) n (%)
Diarrhoea [5]: 31 (45.6) n (%)
Dry skin [5]: 8 (11.8) n (%)
Fatigue [5]: 14 (20.6) n (%)
Hypotension [5]: 15 (22.1) n (%)
Nausea [5]: 45 (66.2) n (%)
Number of patients with ≥1 adverse event [5]: 63 (92.6) n (%)
Rash [5]: 8 (11.8) n (%)
Vomiting [5]: 21 (30.9) n (%)
Alanine aminotransferase increased [6]: 4 (5.9) n (%)
Aspartate aminotransferase increased [6]: 4 (5.9) n (%)
Asthenia [6]: 0 n (%)
Blood creatinine increased [6]: 0 n (%)
Constipation [6]: 0 n (%)
Diarrhoea [6]: 1 (1.5) n (%)
Dry skin [6]: 0 n (%)
Fatigue [6]: 0 n (%)
Hypotension [6]: 6 (8.8) n (%)
Nausea [6]: 1 (1.5) n (%)
Number of patients with ≥1 adverse event [6]: 17 (25.0) n (%)
Rash [6]: 0 n (%)
Vomiting [6]: 1 (1.5) n (%)

Source: publication PMC10006169, “A phase I trial of LXS196, a protein kinase C (PKC) inhibitor, for metastatic uveal melanoma” (British Journal of Cancer, 2023)
